Measured values as given in patent publication US8946282B2, “Indolin-2-one derivatives as protein kinase inhibitors” (Annji Pharmaceutical Co., Ltd., priority 2012, dated 2015).

How the values were obtained:
FLT-3 = biological target: T1, FLT-3 (Homo sapiens, UniProt P36888); test: radioisotope-based P81 filter-binding assay, FLT-3 kinase; assay type: biochemical; settings: for IC50: averaged from two independent dose-response curves, read-out: Enzyme assay IC50 FLT-3
T1 sequence (P36888 27-993): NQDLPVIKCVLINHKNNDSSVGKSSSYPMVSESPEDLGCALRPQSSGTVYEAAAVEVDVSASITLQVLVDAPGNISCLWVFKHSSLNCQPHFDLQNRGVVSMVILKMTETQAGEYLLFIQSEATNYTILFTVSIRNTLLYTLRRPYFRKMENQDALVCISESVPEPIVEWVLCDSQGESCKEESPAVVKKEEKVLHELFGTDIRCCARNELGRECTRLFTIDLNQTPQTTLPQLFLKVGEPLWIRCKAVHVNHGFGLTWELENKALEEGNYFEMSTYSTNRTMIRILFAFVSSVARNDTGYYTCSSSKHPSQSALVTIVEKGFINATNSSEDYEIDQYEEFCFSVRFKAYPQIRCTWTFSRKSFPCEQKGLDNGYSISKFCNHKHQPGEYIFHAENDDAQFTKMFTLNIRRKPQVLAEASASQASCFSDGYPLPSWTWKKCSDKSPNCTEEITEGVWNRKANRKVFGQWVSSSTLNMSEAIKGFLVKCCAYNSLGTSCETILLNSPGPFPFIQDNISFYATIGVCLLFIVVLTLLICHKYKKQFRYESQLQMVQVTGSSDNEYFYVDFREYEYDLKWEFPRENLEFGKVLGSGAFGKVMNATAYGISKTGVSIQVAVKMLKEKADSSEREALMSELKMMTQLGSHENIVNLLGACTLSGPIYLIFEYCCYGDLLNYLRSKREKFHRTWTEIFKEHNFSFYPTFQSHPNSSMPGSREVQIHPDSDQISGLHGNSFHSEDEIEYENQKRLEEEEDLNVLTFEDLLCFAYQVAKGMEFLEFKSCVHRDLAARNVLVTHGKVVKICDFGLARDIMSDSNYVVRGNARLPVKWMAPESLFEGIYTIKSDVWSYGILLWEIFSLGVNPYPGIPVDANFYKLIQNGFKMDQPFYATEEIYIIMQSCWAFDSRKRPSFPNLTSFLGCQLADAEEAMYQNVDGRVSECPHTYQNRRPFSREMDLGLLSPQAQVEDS
Protocol: (§1) Compounds of formula (I)-(IV) were evaluated for abilities in inhibiting protein kinases aurora B and FLT-3 activity using radioisotope-based P81 filter-binding assay (Table 1).

[1] = tested on: HepG2 human hepatocellular carcinoma cells; test: anti-proliferation, SRB colorimetric assay, HepG2; assay type: cell-based; settings: concentration required for 50% growth inhibition, read-out: IC50 (μM, mean ± S.D.)
Excerpt: HCT116 human colorectal carcinoma cells (Table 3), HepG2 human hepatocellular carcinoma cells (Table 4), and MV4-11 human acute myelomonocytic leukemia cells (Table 5).

[2] = tested on: A549 human lung carcinoma cells; test: anti-proliferation, SRB colorimetric assay, A549; assay type: cell-based; settings: concentration required for 50% growth inhibition, read-out: IC50 (μM, mean ± S.D.)
aurora B = aurora B (Homo sapiens, UniProt Q96GD4); test: radioisotope-based P81 filter-binding assay, aurora B kinase; assay type: biochemical; settings: for inhibition at 1 µM: compound at 1.0 μM, mean values (n=2), read-out: percent inhibition of enzyme catalytic activity, Aur B (numbers in parentheses); for IC50: averaged from two independent dose-response curves, read-out: Enzyme assay IC50 Aur B
Sequence of aurora B (Q96GD4 whole entry): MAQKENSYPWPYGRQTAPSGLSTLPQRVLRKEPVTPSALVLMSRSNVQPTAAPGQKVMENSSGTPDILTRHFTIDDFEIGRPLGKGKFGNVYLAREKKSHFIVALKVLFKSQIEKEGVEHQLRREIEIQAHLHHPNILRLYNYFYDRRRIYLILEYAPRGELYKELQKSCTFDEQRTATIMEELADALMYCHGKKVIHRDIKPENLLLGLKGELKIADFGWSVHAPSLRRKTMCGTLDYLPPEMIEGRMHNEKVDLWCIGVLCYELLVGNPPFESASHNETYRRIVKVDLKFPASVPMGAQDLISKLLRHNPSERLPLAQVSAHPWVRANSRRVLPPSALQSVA
Protocol: as §1

[3] = tested on: HCT116 human colorectal carcinoma cells; test: anti-proliferation, SRB colorimetric assay, HCT116; assay type: cell-based; settings: HCT-116, concentration required for 50% growth inhibition, read-out: IC50 (μM, mean ± S.D.)
Protocol: (§2) HCT116 human colorectal carcinoma cells (Table 3), HepG2 human hepatocellular carcinoma cells (Table 4), and MV4-11 human acute myelomonocytic leukemia cells (Table 5). Cells were treated with the test compound and the concentration required for 50% growth inhibition (IC50) determined by sulfomodamine B (SRB) colorimetric assay.

[4] = tested on: MV4-11 human acute myelomonocytic leukemia cells; test: anti-proliferation, SRB colorimetric assay, MV4-11; assay type: cell-based; settings: concentration required for 50% growth inhibition
Protocol: as §2

Structure (SMILES) | inhibition at 1 µM (FLT-3; compound at 1.0 μM, mean values (n=2), read-out: percent inhibition of enzyme catalytic activity, FLT-3 (numbers in parentheses)) | melting point | IC50 [1] | IC50 [2] | inhibition at 1 µM (aurora B) | IC50 (FLT-3) | IC50 [3] | IC50 (aurora B) | IC50 [4]
COc1ccc(C(=O)NC(=O)Nc2cccc3c2NC(=O)/C3=C\c2ccc[nH]2)cc1 [D16, (Z)—N-(3-((1H-pyrrol-2-yl)methylene)-2-oxoindolin-7-ylcarbamoyl)-4-methoxybenzamide] | 6.9% | 253 to 258 °C (dec.) | 0.84 ± 0.01 µM | 0.99 ± 0.08 µM | 7.3% | – | – | – | –
COc1ccc(C(=O)NC(=O)Nc2ccc3c(c2)NC(=O)/C3=C\c2[nH]c(C)c(C(=O)NCCN(C)C)c2C)c(F)c1 [D68] | – | – | 0.74 ± 0.07 µM | 0.47 ± 0.01 µM | – | 16.2 nM | 0.87 ± 0.06 µM | 10.5 nM | –
O=C1Nc2cc(NC(=O)c3cccn(-c4ccc(Cl)c(Cl)c4)c3=O)ccc2/C1=C/c1ccc[nH]1 [D110, (Z)—N-(3-((1H-pyrrol-2-yl)methylene)-2-oxoindolin-6-yl)-1-(3,4-dichlorophenyl)-2-oxo-1,2-dihydropyridine-3-carboxamide] | – | – | 0.82 ± 0.03 µM | – | – | 59.9 nM | 0.85 ± 0.13 µM | > 1000 nM | 2.4 nM
Cc1[nH]c(/C=C2\C(=O)Nc3cc(NC(=O)c4c[nH]cc(-c5ccc(F)cc5)c4=O)ccc32)c(C)c1C(=O)N1CCN(C)CC1 [D149, (Z)—N-(3-((3,5-dimethyl-4-(4-methylpiperazine-1-carbonyl)-1H-pyrrol-2-yl)methylene)-2-oxoindolin-6-yl)-5-(4-fluorophenyl)-4-oxo-1,4-dihydropyridine-3-carboxamide] | – | 283 °C (dec.) | 0.65 ± 0.11 µM | 0.55 ± 0.05 µM | – | 1.4 nM | – | 70.5 nM | 0.05 nM
COc1ccc(C(=O)NC(=O)Nc2ccc3c(c2)NC(=O)/C3=C\c2[nH]c(C)c(C(=O)O)c2C)cc1 [D41, (Z)-5-((6-(3-(4-methoxybenzoyl)ureido)-2-oxoindolin-3-ylidene)-methyl)-2,4-di-methyl-1H-pyrrole-3-carboxylic acid] | – | – | 0.73 ± 0.13 µM | 0.48 ± 0.05 µM | – | 180 nM | – | 1.9 nM | –
Cc1[nH]c(/C=C2\C(=O)Nc3cc(NC(=O)NC(=O)c4ccccc4F)ccc32)c(C)c1C(=O)O [D53, (Z)-5-((6-(3-(2-fluorobenzoyl)ureido)-2-oxoindolin-3-ylidene)methyl)-2,4-dimethyl-1H-pyrrole-3-carboxylic acid] | – | 264 to 269 °C (dec.) | 0.85 ± 0.11 µM | 0.63 ± 0.08 µM | – | 508 nM | – | 3.7 nM | 8.07 nM
Cc1[nH]c(/C=C2\C(=O)Nc3cc(NC(=O)c4c[nH]cc(-c5ccc(F)cc5)c4=O)ccc32)c(C)c1CC(=O)N1CCN(C)CC1 [D150, (Z)—N-(3-((3,5-dimethyl-4-(2-(4-methylpiperazin-1-yl)-2-oxoethyl)-1H-pyrrol-2-yl)methylene)-2-oxoindolin-6-yl)-5-(4-fluorophenyl)-4-oxo-1,4-dihydropyridine-3-carboxamide] | – | > 300 °C | 0.7 ± 0.07 µM | 0.57 ± 0.04 µM | – | 10.3 nM | – | 91.6 nM | 0.1 nM
Cc1[nH]c(/C=C2\C(=O)Nc3cc(NC(=O)N4CCN(C5CC5)C4=O)ccc32)c(C)c1CC(=O)O [D97, (Z)-2-(5-((6-(3-cyclopropyl-2-oxoimidazolidine-1-carboxamido)-2-oxoindolin-3-ylidene)methyl)-2,4-dimethyl-1H-pyrrol-3-yl)acetic acid] | – | – | 0.87 ± 0.05 µM | 0.83 ± 0.04 µM | – | 113 nM | – | 2.7 nM | –
Cc1[nH]c(/C=C2\C(=O)Nc3cc(NC(=O)c4c[nH]cc(-c5ccc(F)cc5)c4=O)ccc32)c(C)c1CCC(=O)N1CCN(C)CC1 [D151, (Z)—N-(3-((3,5-dimethyl-4-(3-(4-methylpiperazin-1-yl)-3-oxopropyl)-1H-pyrrol-2-yl)methylene)-2-oxoindolin-6-yl)-5-(4-fluorophenyl)-4-oxo-1,4-dihydropyridine-3-carboxamide] | – | 250 °C | 0.88 ± 0.13 µM | 0.66 ± 0.07 µM | – | 4.8 nM | – | 107 nM | 0.34 nM
COc1ccc(C(=O)NC(=O)Nc2ccc3c(c2)NC(=O)/C3=C\c2[nH]c(C)c(C(=O)NCCN3CCCC3)c2C)c(F)c1 [D70, (Z)-5-((6-(3-(2-fluoro-4-methoxybenzoyl)ureido)-2-oxoindolin-3-ylidene)methyl)-2,4-dimethyl-N-(2-(pyrrolidin-1-yl)ethyl)-1H-pyrrole-3-carboxamide] | – | – | 0.68 ± 0.03 µM | 0.56 ± 0.05 µM | – | 0.5 nM | 0.85 ± 0.08 µM | 0.4 nM | –
O=C1Nc2cc(NC(=O)c3cccn(-c4ccc(F)cc4)c3=O)ccc2/C1=C/c1ccc[nH]1 [D107, (Z)—N-(3-((1H-pyrrol-2-yl)methylene)-2-oxoindolin-6-yl)-1-(4-fluorophenyl)-2-oxo-1,2-dihydropyridine-3-carboxamide] | – | 295 to 296 °C | 0.9 ± 0.2 µM | 0.7 ± 0.2 µM | – | 8.6 nM | – | 791 nM | 0.02 nM

The next lines start with the values.

inhibition at 1 µM (FLT-3; compound at 1.0 μM, mean values (n=2), read-out: percent inhibition of enzyme catalytic activity, FLT-3 (numbers in parentheses)) | melting point | IC50 [1] | IC50 [2] | inhibition at 1 µM (aurora B) | IC50 (FLT-3) | IC50 [3] | IC50 (aurora B) | IC50 [4] | Structure (SMILES)
– | 280 to 285 °C (dec.) | 0.13 ± 0.06 µM | 0.1 ± 0.01 µM | – | 2.7 nM | 0.32 ± 0.07 µM | 2.1 nM | – | Cc1[nH]c(/C=C2\C(=O)Nc3cc(NC(=O)NC(=O)c4ccc(F)cc4F)ccc32)c(C)c1CCC(=O)O [D56, (Z)-3-(5-((6-(3-(2,4-difluorobenzoyl)ureido]-2-oxoindolin-3-ylidene)methyl)-2,4-dimethyl-1H-pyrrol-3-yl)propanoic acid]
– | > 300 °C | 0.6 µM | 0.6 µM | – | > 1000 nM | 0.6 µM | 123 nM | – | O=C1Nc2cc(NC(=O)c3c[nH]cc(-c4cc(F)cc(F)c4)c3=O)ccc2/C1=C/c1ccc[nH]1 [D136, (Z)—N-(3-((1H-pyrrol-2-yl)methylene)-2-oxoindolin-6-yl)-4-oxo-5-(3,5-difluorophenyl)-1,4-dihydropyridine-3-carboxamide]
– | > 300 °C | 0.21 ± 0.02 µM | 0.08 ± 0.01 µM | – | 45.7 nM | 0.45 ± 0.02 µM | 1.8 nM | – | Cc1[nH]c(/C=C2\C(=O)Nc3cc(NC(=O)NC(=O)c4ccc(F)cc4)ccc32)c(C)c1CCC(=O)O [D55, (Z)-3-(5-((6-(3-(4-fluorobenzoyl)ureido)-2-oxoindolin-3-ylidene)methyl)-2,4-dimethyl-1H-pyrrol-3-yl)propanoic acid]
– | 295 to 300 °C (dec.) | 0.63 ± 0.21 µM | 0.77 ± 0.11 µM | – | 265 nM | – | 2.5 nM | 7.21 nM | Cc1ccc(C(=O)NC(=O)Nc2ccc3c(c2)NC(=O)/C3=C\c2[nH]c(C)c(C(=O)O)c2C)cc1 [D39, (Z)-2,4-dimethyl-5-((6-(3-(4-methylbenzoyl)ureido)-2-oxoindolin-3-ylidene)-methyl)-1H-pyrrole-3-carboxylic acid]
– | 285 to 290 °C (dec.) | 0.64 ± 0.01 µM | 0.73 ± 0.02 µM | 39.3% | 201 nM | – | – | 0.07 nM | COc1ccc(C(=O)NC(=O)Nc2ccc3c(c2)/C(=C/c2ccc[nH]2)C(=O)N3)cc1 [D14, (Z)—N-(3-((1H-pyrrol-2-yl)methylene)-2-oxoindolin-5-ylcarbamoyl)-4-methoxybenzamide]
